Square brackets hold non-standard residues; d marks the D form. Side chains are listed from the residue outwards. Peptide text beside a SMILES is read from it. PMO = not defined here; AEEA = NCCOCCOCC(=O)O; Ahx = NCCCCCC(=O)O; Mpa = O=C(O)CCS
Tests used:
[1] = Serum stability in 50% human serum at 37 °C (RP-HPLC, one-phase decay half-life); settings: for half-life at 500 µM: human, serum (50% human serum)
Experimental: Serum stability analysis was conducted for each peptide (7×50 nmol) shown in Table 3 in 50% human serum (100 μL) at 37° C. At the end of each time point (0, 10, 30, 60, 120, 240, and 480 min), 1 M guanidine hydrochloride solution (200 μL) and ice-cold acetonitrile (600 μL) were added, and the serum-peptide solution was centrifuged at 14000 g for 10 min. The supernatant was lyophilised and redissolved in water (200 μL). All samples were analysed by RP-HPLC in the presence of phenol (50 nmol) as an internal standard, using water and acetonitrile containing 0.1% TFA, with a gradient of 10-80% acetonitrile over 30 min, and a flow rate of 1.5 mL/min. The percentage of peptide remaining was measured based on the area under curve. The percentage of peptide remaining versus time data was fitted to a non-linear one-phase exponential decay model in GraphPad Prism 9.2.0 to determine the half-life for each peptide.

[2] = test system: SMN2; experiment: SMN2 splice-switching for exon 7 inclusion by RT-qPCR in SMA Type I patient-derived fibroblasts (Example 2); format: cell-based, human; settings: for exon-7 inclusion activity, change in words: 0.5 μM and 1 μM, versus comparator; for level of exon-7 inclusion activity (full length SMN2/HPRT1, normalised to untreated control set to 1): treated 4 hrs, then 20 hrs growth medium, mean±SEM
Source text: FIG. 3. (A) SMN2 pre-mRNA exon-7 skipping and production of 80-90% SMN2Δ7 mRNA transcripts. Peptide-PMO binding to Intron-splicing silencer (ISS-N1) and restoration of SMN2 splicing and production of full-length SMN2 mRNA transcripts. The positions of forward and reverse primers highlighted on full-length mRNA. (B)-(C) Effect of administration of peptides linked to PMO for SMN2 exon 7 inclusion, measured as change in the level of full length SMN2/HPRT1 in SMA patient-derived fibroblasts, each at two concentrations, 0.5 μM and 1 μM (or 1 μM and 5 μM in the case of PMO alone). UT, untreated. (B) For PMO constructs, from left to right: PMO; ApoE(141-150)-PMO; ApoE(133-150)-PMO. (C) For PMO constructs, from left to right: PMO; HA2-PMO; GALA-PMO; NLS-PMO; ApoE(141-150)-PMO; HA2-ApoE(141-150)-PMO; GALA-ApoE(141-150)-PMO; NLS-ApoE(141-150)-PMO; H4-ApoE(141-150)-PMO; A4-ApoE(141-150)-PMO. *P<0.05,**P<0.001, ***P<0.0001 cf. Untreated (control) and PMO (1 and 5 μM); #P<0.001 cf. GALA-/NLS-/H4-ApoE(141-150)-PMO (1 μM), ^<0.001 cf. ApoE(133-150)-PMO (0.5 and 1 μM), ^OP<0.001 cf. ApoE(141-150)-PMO (1 μM), ^&P<0.05 cf.
The inventors then evaluated cellular uptake and activity of these peptide-PMO conjugates in SMA Type I patient-derived fibroblasts with two copies of SMN2. Efficiency of uptake was assessed by RT-qPCR using SMN2 splice-switching for exon 7 inclusion (see FIG. 3A).
SMA Type I patient-derived fibroblasts (SMN2^+/+, GM03813, Coriell Cell Repositories) were maintained in Dulbecco's Modified Eagle's Medium (DMEM), supplemented with 10% foetal bovine serum (FBS), 1% Penicillin/Streptomycin and 1% L-glutamine (L-glu) at 37° C. Cells were plated in 6-well plates at a density of 3×10^5/well in 6 well plates one day prior to treatment with PMO and peptide-PMO conjugates. Cells used were from passage 8-22. PMO and the peptide-PMO conjugates were dissolved in nuclease-free water and diluted to appropriate concentrations in Opti-MEM reduced serum medium. Cells were treated for 4 hrs at 37° C. The transfection medium was then removed and replaced with growth medium in which the cells were incubated for 20 hrs.
Cells were washed with PBS and total cellular RNA was extracted using Trizol (TRI Reagent®, Sigma) according to the manufacturer's instructions (Life Technologies). 400 ng purified RNA was reverse transcribed into cDNA using BioRad iScript Reverse Transcription Supermix kit according to the manufacturer's instructions. The reverse transcription was performed using the Veriti Thermal Cycler (ThermoFisher Scientific) with the thermal cycling conditions: 25° C. for 5 min, 46° C. for 20 min, 95° C. for 1 min followed by a 4° C. holding period.
Quantitative PCR (20 ng cDNA/well) was carried out in a 96-well plate in triplicate using SsoAdvanced Universal SYBR Green Supermix on a Biorad CFX96 Touch™ Real-Time PCR detection system. The amplification was carried out using full-length SMN2-specific primers: Ex-6 Forward 5′-[…]-3′ (SEQ ID NO:10) and Ex7-8 reverse 5′[…]-3′ (SEQ ID NO:11). Human HPRT1 was used as the internal reference gene with forward primer sequence 5′-[…]-3′ (SEQ ID NO:12) and reverse primer sequence 5′-[…]-3′ (SEQ ID NO:13). The ΔΔCt method was used to correct the Ct values against the HPRT1 Ct values. The values obtained were normalised to the untreated control values which were set to 1. Statistical analysis was carried out using one-way ANOVA with post-hoc Bonferroni for multiple groups comparison (GraphPad Prism V.8, 2018). All data are expressed as mean±SEM from at least three independent experiments with p<0.05 considered significant.

half-life at 500 µM [1] [min]	Compound	exon-7 inclusion activity, change in words [2]	further results
36	CC[C@H](C)[C@H](NC(=O)[C@H](C)NC(=O)[C@H](Cc1c[nH]cn1)NC(=O)[C@H](Cc1ccccc1)NC(=O)[C@H](CC(C)C)NC(=O)CNC(C)=O)C(=O)N[C@@H](C)C(=O)N[C@@H](Cc1c[nH]cn1)C(=O)N[C@@H](Cc1ccccc1)C(=O)N[C@H](C(=O)N[C@@H](Cc1c[nH]cn1)C(=O)NCC(=O)NCC(=O)N[C@@H](Cc1c[nH]c2ccccc12)C(=O)N[C@@H](Cc1c[nH]cn1)C(=O)NCCOCCOCC(=O)N[C@@H](CCCCNC(=O)COCCOCCNC(=O)CCS)C(=O)NCCOCCOCC(=O)N[C@@H](CC(C)C)C(=O)N[C@@H](CCCNC(=N)N)C(=O)N[C@@H](CCCCN)C(=O)N[C@@H](CC(C)C)C(=O)N[C@@H](CCCNC(=N)N)C(=O)N[C@@H](CCCCN)C(=O)N[C@@H](CCCNC(=N)N)C(=O)N[C@@H](CC(C)C)C(=O)N[C@@H](CC(C)C)C(=O)N[C@@H](CCCNC(=N)N)C(=O)O)[C@@H](C)CC [Br-HA2-(TPA)-ApoE(141-150), Ac-GLFHAIAHFIHGGWH-mPEG-K(mPEG-TPA)-mPEG-LRKLRKRLLR] (Ac-GLFHAIAHFIHGGWH[AEEA]K([AEEA-Mpa])[AEEA]LRKLRKRLLR-OH)	–	–
96	CC[C@@H](C)[C@@H](NC(=O)[C@@H](C)NC(=O)[C@@H](Cc1c[nH]cn1)NC(=O)[C@@H](Cc1ccccc1)NC(=O)[C@H](NC(=O)[C@@H](Cc1c[nH]cn1)NC(=O)CNC(=O)CNC(=O)[C@@H](Cc1c[nH]c2ccccc12)NC(=O)[C@@H](Cc1c[nH]cn1)NC(C)=O)[C@H](C)CC)C(=O)N[C@H](C)C(=O)N[C@H](Cc1c[nH]cn1)C(=O)N[C@H](Cc1ccccc1)C(=O)N[C@H](CC(C)C)C(=O)NCC(=O)NCCOCCOCC(=O)N[C@@H](CCCCNC(=O)COCCOCCNC(=O)CCS)C(=O)NCCOCCOCC(=O)N[C@H](CCCNC(=N)N)C(=O)N[C@H](CC(C)C)C(=O)N[C@H](CC(C)C)C(=O)N[C@H](CCCNC(=N)N)C(=O)N[C@H](CCCCN)C(=O)N[C@H](CCCNC(=N)N)C(=O)N[C@H](CC(C)C)C(=O)N[C@H](CCCCN)C(=O)N[C@H](CCCNC(=N)N)C(=O)N[C@H](CC(C)C)C(=O)N[C@H](Cc1c[nH]cn1)C(=O)N[C@H](CO)C(=O)N[C@H](C)C(=O)N[C@H](CC(C)C)C(=O)N[C@H](CCCNC(=N)N)C(=O)N[C@@H](C(=O)N[C@H](CCCNC(=N)N)C(=O)N[C@H](CC(C)C)C(=O)O)C(C)C [RI Br-HA2-(TPA)-ApoE(133-150), Ac-hwgghifhaiahflg-mPEG-K(mPEG-TPA)-mPEG-rllrkrlkrlhsalrvrl] (Ac-[dH][dW]GG[dH][dI][dF][dH][dA][dI][dA][dH][dF][dL]G[AEEA]K([AEEA-Mpa])[AEEA][dR][dL][dL][dR][dK][dR][dL][dK][dR][dL][dH][dS][dA][dL][dR][dV][dR][dL]-OH)	–	proteolytic stability compared to the parent L-peptides ([1]; 50% human serum, 37° C.): significantly higher proteolytic stability
18	CC[C@@H](C)[C@@H](NC(=O)[C@@H](C)NC(=O)[C@@H](Cc1c[nH]cn1)NC(=O)[C@@H](Cc1ccccc1)NC(=O)[C@H](NC(=O)[C@@H](Cc1c[nH]cn1)NC(=O)CNC(=O)CNC(=O)[C@@H](Cc1c[nH]c2ccccc12)NC(=O)[C@@H](Cc1c[nH]cn1)NC(C)=O)[C@H](C)CC)C(=O)N[C@H](C)C(=O)N[C@H](Cc1c[nH]cn1)C(=O)N[C@H](Cc1ccccc1)C(=O)N[C@H](CC(C)C)C(=O)NCC(=O)NCCOCCOCC(=O)N[C@@H](CCCCNC(=O)COCCOCCNC(=O)CCS)C(=O)NCCOCCOCC(=O)N[C@H](CCCNC(=N)N)C(=O)N[C@H](CC(C)C)C(=O)N[C@H](CC(C)C)C(=O)N[C@H](CCCNC(=N)N)C(=O)N[C@H](CCCCN)C(=O)N[C@H](CCCNC(=N)N)C(=O)N[C@H](CC(C)C)C(=O)N[C@H](CCCCN)C(=O)N[C@H](CCCNC(=N)N)C(=O)N[C@H](CC(C)C)C(=O)O [RI Br-HA2-(TPA)-ApoE(141-150), Ac-hwgghifhaiahflg-mPEG-K(mPEG-TPA)-mPEG-rllrkrlkrl] (Ac-[dH][dW]GG[dH][dI][dF][dH][dA][dI][dA][dH][dF][dL]G[AEEA]K([AEEA-Mpa])[AEEA][dR][dL][dL][dR][dK][dR][dL][dK][dR][dL]-OH)	–	–
–	Ac-AAAA-X-LRKLRKRLLR-X-C-PMO [A4-ApoE(141-150)-PMO]	significant decrease	–
–	Ac-HHHH-X-LRKLRKRLLR-X-C-PMO [H4-ApoE(141-150)-PMO]	–	level of exon-7 inclusion activity (full length SMN2/HPRT1, normalised to untreated control set to 1) ([2]; 0.5 μM): 1.81±0.02; level of exon-7 inclusion activity (full length SMN2/HPRT1, normalised to untreated control set to 1) ([2]; 1 μM): 2.0±0.05
–	Ac-VQRKRQKLMP-X-LRKLRKRLLR-X-C-PMO [NLS-ApoE(141-150)-PMO]	significant increase in the activity	–
–	Ac-WEAALAEALAEALAEHLAEALAEALEALAA-X-C-PMO (Ac-WEAALAEALAEALAEHLAEALAEALEALAA[Ahx]C-{PMO}; reading uncertain; also: printed as Ac-WEAALAEALAEALAEHLAEALAEALEALAA-X-C-PMO) [GALA-PMO]	no significant increase	–
–	Ac-WEAALAEALAEALAEHLAEALAEALEALAA-X-LRKLRKRLLR-X-C-PMO [GALA-ApoE(141-150)-PMO]	significant increase in the activity	level of exon-7 inclusion activity (full length SMN2/HPRT1, normalised to untreated control set to 1) ([2]; 0.5 μM): 1.41±0.04; level of exon-7 inclusion activity (full length SMN2/HPRT1, normalised to untreated control set to 1) ([2]; 1 μM): 2.14±0.14
–	Myr-LRKLRKRLLR-X-C-PMO [Myr-ApoE(141-150)-PMO]	–	exon-7 inclusion activity (full length SMN2/HPRT1, normalised to untreated control set to 1) ([2]; concentration not given, compared to acetylated counterpart): 1.91±0.03

Compound	half-life at 500 µM [1] [min]	exon-7 inclusion activity, change in words [2]	further results
CC[C@H](C)[C@H](NC(=O)[C@H](C)NC(=O)[C@H](Cc1c[nH]cn1)NC(=O)[C@H](Cc1ccccc1)NC(=O)[C@H](CC(C)C)NC(=O)CNC(C)=O)C(=O)N[C@@H](C)C(=O)N[C@@H](Cc1c[nH]cn1)C(=O)N[C@@H](Cc1ccccc1)C(=O)N[C@H](C(=O)N[C@@H](Cc1c[nH]cn1)C(=O)NCC(=O)NCC(=O)N[C@@H](Cc1c[nH]c2ccccc12)C(=O)N[C@@H](Cc1c[nH]cn1)C(=O)NCCOCCOCC(=O)N[C@@H](CCCCNC(=O)COCCOCCNC(=O)CCS)C(=O)NCCOCCOCC(=O)N[C@@H](CC(C)C)C(=O)N[C@@H](CCCNC(=N)N)C(=O)N[C@H](C(=O)N[C@@H](CCCNC(=N)N)C(=O)N[C@@H](CC(C)C)C(=O)N[C@@H](C)C(=O)N[C@@H](CO)C(=O)N[C@@H](Cc1c[nH]cn1)C(=O)N[C@@H](CC(C)C)C(=O)N[C@@H](CCCNC(=N)N)C(=O)N[C@@H](CCCCN)C(=O)N[C@@H](CC(C)C)C(=O)N[C@@H](CCCNC(=N)N)C(=O)N[C@@H](CCCCN)C(=O)N[C@@H](CCCNC(=N)N)C(=O)N[C@@H](CC(C)C)C(=O)N[C@@H](CC(C)C)C(=O)N[C@@H](CCCNC(=N)N)C(=O)O)C(C)C)[C@@H](C)CC [Br-HA2-(TPA)-ApoE(133-150), Ac-GLFHAIAHFIHGGWH-mPEG-K(mPEG-TPA)-mPEG-LRVRLASHLRKLRKRLLR] (Ac-GLFHAIAHFIHGGWH[AEEA]K([AEEA-Mpa])[AEEA]LRVRLASHLRKLRKRLLR-OH)	60	–	–
